The values that follow come from PMC5330486 (PLoS Biology, 2017).

In this experiment the target is T1, AsfvPolX (ASFV DNA Polymerase X) (African swine fever virus BA71V, UniProt P42494).
T1 construct: gene Ba71V-97
Put plainly: biochemical. As to conditions: for AsfvPolX: no DNA stated, buffer, metal and temperature not stated. It counts as binding.

SMILES strings stand for the structures.

T1 sequence (P42494 whole entry, looked up): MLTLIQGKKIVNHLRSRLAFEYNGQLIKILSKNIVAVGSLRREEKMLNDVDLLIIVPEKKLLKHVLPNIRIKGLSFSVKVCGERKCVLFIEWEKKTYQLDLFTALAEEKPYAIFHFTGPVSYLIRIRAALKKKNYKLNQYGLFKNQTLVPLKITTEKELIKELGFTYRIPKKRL

As usually defined, the Kd is the constant that tells how readily two partners part at equilibrium. Read a low Kd as a tighter complex. In turn, `Cc1cn([C@H]2C[C@H](O)[C@@H](COP(=O)(O)OP(=O)(O)OP(=O)(O)O)O2)c(=O)[nH]c1=O` [dTTP] had a dissociation constant (Kd) of 9.09 ± 0.89 µM.

On to `Nc1nc2c(ncn2[C@H]2C[C@H](O)[C@@H](COP(=O)(O)OP(=O)(O)OP(=O)(O)O)O2)c(=O)[nH]1` [dGTP], for which the AsfvPolX (structures are ternary complexes with gap(P) DNA and Mn2+) was 0.37+0.02 μM. Compound `Nc1ccn([C@H]2C[C@H](O)[C@@H](COP(=O)(O)OP(=O)(O)OP(=O)(O)O)O2)c(=O)n1` [dCTP] registered a Kd of 6.85 ± 0.55 µM. `Nc1ncnc2c1ncn2[C@H]1C[C@H](O)[C@@H](COP(=O)(O)OP(=O)(O)OP(=O)(O)O)O1` [dATP] had an AsfvPolX of 0.66 ± 0.05 µM.
